Results published in US20250161299A1, “ORAL PCLX-001 IN THE TREATMENT OF HUMAN CANCER” (PACYLEX PHARMACEUTICALS INC., priority 2022, published 2025).

Tests used:
[1] = Oral bioavailability in animal models; type: in vivo
[2] = PK and maximally tolerated dose, daily oral administration, dog
[3] = PK and maximally tolerated dose, daily oral administration, rat
implanted human tumors = assay: Anticancer efficacy in mice bearing implanted human tumors; type: in vivo, mouse; settings: in any given experiment
[4] = test system: Bruton tyrosine kinase (BTK); settings: models of human lymphoma; cited from earlier work
[5] = test system: Leukemia cultured human cancer cells; settings: mean among sensitive cell lines, cited from earlier work
[6] = test system: Bladder cultured human cancer cells; settings: mean among sensitive cell lines (EC50<500 nM or IC50<500 nM), cited from earlier work
[7] = test system: Neuroblastoma cultured human cancer cells; settings: second panel, mean among sensitive cell lines, read-out: IC50 mean +/− SD; cited from earlier work
[8] = test system: Breast cultured human cancer cells; settings: mean among sensitive cell lines, cited from earlier work
[9] = first panel, read-out: EC50 mean +/− SD
[10] = second panel, read-out: IC50 mean +/− SD

## Cc1c(NS(=O)(=O)c2c(Cl)cc(-c3ccnc(N4CCNCC4)c3)cc2Cl)c(CC(C)C)nn1C [PCLX-001, 2,6-dichloro-N-(3-isobutyl-1,5-dimethyl-1H-pyrazol-4-yl)-4-(2-(piperazin-1-yl)pyridin-4-yl)benzene sulfonamide]
[1]
  oral bioavailability: complete oral bioavailability
[2]
  Maximally Tolerated Dose daily oral administration: 4 mg/kg
[3]
  Maximally Tolerated Dose daily oral administration: 125 mg/kg
Implanted human tumors
  effective dose relative to the dose that produced mouse toxicity: greater than 50%
[4]
  BTK modification and downstream signaling: profoundly inhibited
[5]; [9]
  EC50: 97.9 ± 81.3 nM
[5]; [10]
  IC50: 189 ± 87.8 nM
[6]; [9]
  EC50: 155 ± 49.7 nM
[6]; [10]
  IC50: 172 ± 79.8 nM
[7]
  IC50: 230 ± 183 nM
[8]; [9]
  EC50: 101 ± 96.4 nM
[8]; [10]
  IC50: 161 ± 47.9 nM
